The record followed here is patent US10722501B2 (BAYER AKTIENGESELLSCHAFT, priority 2016, dated 2020).

This assay addresses T1, recombinant full-length human prolyl endopeptidase (PREP) (Homo sapiens, UniProt P48147).
T1 construct: To recombinant full-length human prolyl endopeptidase (PREP, R&D-Systems, 4308-SE); purchased R&D-Systems 4308-SE
T1 sequence (P48147 1-710): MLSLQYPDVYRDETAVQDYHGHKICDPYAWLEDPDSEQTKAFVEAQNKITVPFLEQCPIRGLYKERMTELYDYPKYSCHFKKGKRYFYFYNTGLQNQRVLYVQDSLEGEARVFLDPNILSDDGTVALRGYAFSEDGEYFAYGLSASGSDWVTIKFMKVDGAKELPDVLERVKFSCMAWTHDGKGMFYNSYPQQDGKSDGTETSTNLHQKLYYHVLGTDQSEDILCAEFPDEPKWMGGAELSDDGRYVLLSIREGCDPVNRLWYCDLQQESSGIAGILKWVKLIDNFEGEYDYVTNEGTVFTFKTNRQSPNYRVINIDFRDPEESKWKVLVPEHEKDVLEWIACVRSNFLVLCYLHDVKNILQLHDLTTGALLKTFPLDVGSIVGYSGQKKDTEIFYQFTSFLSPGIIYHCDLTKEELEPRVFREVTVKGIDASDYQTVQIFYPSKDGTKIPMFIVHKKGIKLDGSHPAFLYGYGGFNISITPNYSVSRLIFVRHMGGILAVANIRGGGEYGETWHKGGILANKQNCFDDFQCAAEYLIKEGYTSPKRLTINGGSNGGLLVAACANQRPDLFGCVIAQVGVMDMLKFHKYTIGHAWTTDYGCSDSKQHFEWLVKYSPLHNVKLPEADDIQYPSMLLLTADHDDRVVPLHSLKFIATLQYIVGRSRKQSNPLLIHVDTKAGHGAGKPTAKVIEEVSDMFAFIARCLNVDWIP
The assay can be described thus: Biochemical human prolyl endopeptidase (PREP) assay with fluorescently labelled substrate. Conditions: substrate Z-Gly-Pro-AMC 50 μM, 32° C., 60 min; some as mean values from multiple independent determinations. In short, it runs like this: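 0.4 nM (final, example) recombinant PREP in pH 7.5 Tris buffer with EDTA, GSH, BSA and Brij-35; compounds at 1 nM to 30 μM. Reaction started with 50 μM Z-Gly-Pro-AMC and followed by fluorescence (ex 360/em 465 nm) at 32° C for 60 min. IC50 interpolated from percent activity based on initial slopes.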
For orientation: IC50 means the midpoint of a concentration-inhibition curve. As to `O=C(C1CC(C(F)(F)F)Cc2nn(Cc3ccnc(C(F)(F)F)c3F)c(=O)n21)N1CC[C@H](F)C1` (single isomer, unassigned) [Example 258], the half-inhibitory concentration (IC50) is 91.5 nM. In the case of `N#C[C@@H]1CCCN1C(=O)[C@@H]1CCCc2nn(Cc3ccc(Cl)cn3)c(=O)n21` [Example 512, (2S)-1-({(5S)-2-[(5-Chloropyridin-2-yl)methyl]-3-oxo-2,3,5,6,7,8-hexahydro[1,2,4]triazolo[4,3-a]pyridin-5-yl}carbonyl)pyrrolidine-2-carbonitrile] it was 0.15 nM. The value for `Cc1ccc(Cn2nc3n(c2=O)[C@H](C(=O)N2CC(C)(F)C2)CCC3)cc1` [Example 195, (5S)-5-[(3-Fluoro-3-methylazetidin-1-yl)carbonyl]-2-(4-methylbenzyl)-5,6,7,8-tetrahydro[1,2,4]triazolo[4,3-a]pyridin-3(2H)-one] was 0.69 nM; that for `O=C([C@@H]1CCCc2nn(Cc3ccc(F)cc3F)c(=O)n21)N1CC[C@H](F)C1` [Example 488, (5S)-2-(2,4-Difluorobenzyl)-5-{[(3S)-3-fluoropyrrolidin-1-yl]carbonyl}-5,6,7,8-tetrahydro[1,2,4]triazolo[4,3-a]pyridin-3(2H)-one] was 0.15 nM; that for `O=C([C@@H]1CCCc2nn(Cc3ccc(Cl)cn3)c(=O)n21)N1CCC(F)(F)C1` [Example 377, (5S)-2-[(5-Chloropyridin-2-yl)methyl]-5-[(3,3-difluoropyrrolidin-1-yl)carbonyl]-5,6,7,8-tetrahydro[1,2,4]triazolo[4,3-a]pyridin-3(2H)-one] was 6.86 nM.

Regarding `Cc1ccc(Cn2nc3n(c2=O)[C@H](C(=O)N2C[C@@H](F)[C@@H](F)C2)CCC3)cc1` [Example 150, (5S)-5-{[cis-3,4-Difluoropyrrolidin-1-yl]carbonyl}-2-(4-methylbenzyl)-5,6,7,8-tetrahydro[1,2,4]triazolo[4,3-a]pyridin-3(2H)-one], the half-inhibitory concentration (IC50) was determined as 0.58 nM. As for `O=C([C@@H]1CCCc2nn(Cc3cccc(Cl)n3)c(=O)n21)N1CC(F)C1` [Example 384, (5S)-2-[(6-Chloropyridin-2-yl)methyl]-5-[(3-fluoroazetidin-1-yl)carbonyl]-5,6,7,8-tetrahydro[1,2,4]triazolo[4,3-a]pyridin-3(2H)-one], the half-maximal inhibitory concentration (IC50) stood at 11 nM.

Consider `O=C([C@@H]1CCCc2nn(Cc3ccc(C(F)(F)F)c(Cl)c3)c(=O)n21)N1C[C@@H](F)[C@@H](F)C1` [Example 458, (5S)-2-[3-Chloro-4-(trifluoromethyl)benzyl]-5-{[(3R,4S)-3,4-difluoropyrrolidin-1-yl]carbonyl}-5,6,7,8-tetrahydro[1,2,4]triazolo[4,3-a]pyridin-3(2H)-one], for which the IC50 amounted to 0.51 nM. The value for `O=C([C@@H]1CCCc2nn(Cc3cc(C(F)(F)F)c(Cl)cn3)c(=O)n21)N1CC[C@H](F)C1` [Example 376, (5S)-2-{[5-Chloro-4-(trifluoromethyl)pyridin-2-yl]methyl}-5-{[(3S)-3-fluoropyrrolidin-1-yl]carbonyl}-5,6,7,8-tetrahydro[1,2,4]triazolo[4,3-a]pyridin-3(2H)-one] was 0.41 nM; that for `O=C([C@@H]1CCCc2nn(CC3CC3)c(=O)n21)N1C[C@@H](F)[C@@H](F)C1` [Example 184, (5S)-2-(Cyclopropylmethyl)-5-{[(3R,4S)-3,4-difluoropyrrolidin-1-yl]carbonyl}-5,6,7,8-tetrahydro[1,2,4]triazolo[4,3-a]pyridin-3(2H)-one] was 4.5 nM; that for `CC1CCC(C(=O)N2CC(F)C2)n2c1nn(Cc1ccc(F)c(Cl)c1)c2=O` (racemic) [Example 321, (5RS,8RS)-2-(3-Chloro-4-fluorobenzyl)-5-[(3-fluoroazetidin-1-yl)carbonyl]-8-methyl-5,6,7,8-tetrahydro[1,2,4]triazolo[4,3-a]pyridin-3(2H)-one] was 0.93 nM. The value for `O=C(C1CC(C(F)(F)F)Cc2nn(Cc3ccc(Cl)nc3)c(=O)n21)N1CCCC1` (single isomer, unassigned) [Example 228, (5RS,7RS)-2-[(6-Chloropyridin-3-yl)methyl]-5-(pyrrolidin-1-ylcarbonyl)-7-(trifluoromethyl)-5,6,7,8-tetrahydro[1,2,4]triazolo[4,3-a]pyridin-3(2H)-one] was 2.2 nM; that for `O=C([C@@H]1CCCc2nn(Cc3ccc(Cl)nc3)c(=O)n21)N1CCC2CC21` (single isomer, unassigned) [Example 197] was 235 nM; that for `CC(C)(C)c1ccc(Cn2nc3n(c2=O)C(C(=O)N2CCCC2)CCC3)cc1` (racemic) [Example 2, (5RS)-2-(4-tert-Butylbenzyl)-5-(pyrrolidin-1-ylcarbonyl)-5,6,7,8-tetrahydro[1,2,4]triazolo[4,3-a]pyridin-3(2H)-one] was 15.4 nM. In the case of `O=C(C1CC(C(F)(F)F)Cc2nn(Cc3cncc(Cl)c3)c(=O)n21)N1C[C@@H](F)[C@@H](F)C1` (single isomer, unassigned) [Example 268], the IC50 turned out to be 23 nM. Take `O=C(C1CC(C(F)(F)F)Cc2nn(Cc3ncc(F)cc3Cl)c(=O)n21)N1CC[C@H](F)C1` (mixture of isomers) [Example 571, (5RS,7RS)-2-[(3-Chloro-5-fluoropyridin-2-yl)methyl]-5-{[(3S)-3-fluoropyrrolidin-1-yl]carbonyl}-7-(trifluoromethyl)-5,6,7,8-tetrahydro[1,2,4]triazolo[4,3-a]pyridin-3(2H)-one]: the 50% inhibitory concentration (IC50) was found to be 1.1 nM.

Take `O=C(C1CCCc2nn(Cc3ccc(Cl)cn3)c(=O)n21)N1CCC(F)(F)C1` (racemic) [Example 78, (5RS)-2-[(5-Chloropyridin-2-yl)methyl]-5-[(3,3-difluoropyrrolidin-1-yl)carbonyl]-5,6,7,8-tetrahydro[1,2,4]triazolo[4,3-a]pyridin-3(2H)-one]: the IC50 was determined as 6 nM. The value for `Cc1ccc(C2(Cn3nc4n(c3=O)[C@H](C(=O)N3CC[C@H](O)C3)CCC4)CC2)cc1` [Example 525, (5S)-5-{[(3S)-3-Hydroxypyrrolidin-1-yl]carbonyl}-2-{[1-(4-methylphenyl)cyclopropyl]methyl}-5,6,7,8-tetrahydro[1,2,4]triazolo[4,3-a]pyridin-3(2H)-one] was 15.2 nM; that for `O=C(C1CCCc2nn(Cc3ccc(Cl)nc3)c(=O)n21)N1CCCC1` (racemic) [Example 31, (5RS)-2-[(6-Chloropyridin-3-yl)methyl]-5-(pyrrolidin-1-ylcarbonyl)-5,6,7,8-tetrahydro[1,2,4]triazolo[4,3-a]pyridin-3(2H)-one] was 2.9 nM. The value for `O=C(C1C(C(F)(F)F)CCc2nn(Cc3ccc(C(F)(F)F)nc3)c(=O)n21)N1CC(F)C1` (racemic) [Example 304, (5RS,6RS)-5-[(3-Fluoroazetidin-1-yl)carbonyl]-6-(trifluoromethyl)-2-{[6-(trifluoromethyl)pyridin-3-yl]methyl}-5,6,7,8-tetrahydro[1,2,4]triazolo[4,3-a]pyridin-3(2H)-one] was 35 nM; that for `O=C(C1CC(C(F)(F)F)Cc2nn(Cc3ncc(F)cc3F)c(=O)n21)N1CC[C@H](F)C1` (single isomer, unassigned) [Example 570] was 0.57 nM; that for `Cc1ccc(Cn2nc3n(c2=O)[C@H](C(=O)N2CC[S+]([O-])C2)CCC3)cc1` (single isomer, unassigned) [Example 193] was 0.42 nM. As for `O=C(C1CC(C(F)(F)F)Cc2nn(Cc3ccnc(C(F)(F)F)c3F)c(=O)n21)N1CCC(F)(F)C1` (racemic) [Example 251, (5RS,7RS)-5-[(3,3-Difluoropyrrolidin-1-yl)carbonyl]-2-{[3-fluoro-2-(trifluoromethyl)pyridin-4-yl]methyl}-7-(trifluoromethyl)-5,6,7,8-tetrahydro[1,2,4]triazolo[4,3-a]pyridin-3(2H)-one], the 50% inhibitory concentration (IC50) was 3.4 nM. Turning to `O=C(C1CC(C(F)(F)F)Cc2nn(Cc3ccc(C(F)(F)F)nc3)c(=O)n21)N1CCC(F)(F)C1` (single isomer, unassigned) [Example 313, (5RS,7RS)-5-[(3,3-Difluoropyrrolidin-1-yl)carbonyl]-7-(trifluoromethyl)-2-{[6-(trifluoromethyl)pyridin-3-yl]methyl}-5,6,7,8-tetrahydro[1,2,4]triazolo[4,3-a]pyridin-3(2H)-one], the IC50 worked out at 4 nM.

On to `Cc1ccc(Cn2nc3n(c2=O)C(C(=O)N2CCC4(C2)CC4(F)F)CCC3)cc1` (mixture of isomers) [Example 128, (5S)-{[(3RS)-1,1-Difluoro-5-azaspiro[2.4]hept-5-yl]carbonyl}-2-(4-methylbenzyl)-5,6,7,8-tetrahydro[1,2,4]triazolo[4,3-a]pyridin-3(2H)-one], for which the IC50 worked out at 46 nM.
